Results reported in patent US20250040545A1, “USE OF SYNERGISTIC COMPOSITIONS BASED ON ZOXAMIDE AND CYFLUFENAMID AS FUNGICIDES IN THE AGRONOMIC FIELD” (Gowan Crop Protection Limited, priority 2023, published 2025).
Values joined by “and” are separate entries in the source; they are usually repeats but may differ in a detail not shown here. Equal values may be shown once.

Key:
Format in all cases: cell-based
Conditions in all cases: single active ingredient
[1] = system: Botrytis cinerea; test: In vitro antifungal synergy assay, growth inhibition in 96-well plates (absorbance), Botrytis cinerea
Method: (§1) Compositions consisting of the active ingredients Zoxamide (A) and Cyflufenamid (B) in different weight ratios were tested to evaluate their in vitro synergistic antifungal activity against the following phytopathogenic fungi: Botrytis cinerea, Sclerotinia minor and Venturia inaequalis by comparing them with the single active ingredients (A) and (B).
(§2) The strains in pure culture are kept and stored at 4° C. in a refrigerator on potato dextrose agar (PDA) nutrient substrates. The fungal inoculum was prepared (which, depending on the species of the pathogen, could be a suspension of conidia or a mycelial homogenate) for carrying out the synergy assays.
For the in vitro sporulating strain, i.e. Botrytis cinerea, the conidic suspension was prepared starting from a culture grown on PDA after 4-5 days of incubation in a thermostat at 24° C. to stimulate its sporulation. The conidia were collected in 1 mL of double-concentration PDB and counted under a microscope with a counting chamber to obtain a final inoculum of 4×10^4 conidia/mL.
(§3) In the compositions tested, the weight ratios of Zoxamide (A) with respect to Cyflufenamid (B) range from 500:1 to 1:100. For both molecules tested, a stock solution in dimethyl sulfoxide (DMSO) at 160,000 mg/l was prepared which was then serially diluted in sterile demineralized water to obtain the solutions to be tested at concentrations double with respect to the final doses. More specifically, the compositions of the two fungicide molecules (A) and (B) were tested following a checkerboard matrix in order to have, in this way, all possible combinations of the two fungicides within the weight ratios described above.
(§4) Synergy assays were performed in 96-well plates: 50 μl of inoculum were mixed with 50 μl of solution of the compositions consisting of the two active molecules (A) and (B) in each well using the Eppendorf Multipette® System E3 serial dispenser.
(§5) Three wells were used as replicates for each concentration/active ingredient composition.
(§6) All pathogen strains were grown in untreated control wells containing 50 μl of fungal suspension and 50 μl of sterile demineralized water. The inoculated multi-well plates are incubated at 22° C. for 72 hours or 96 or 120 depending on the type of pathogen.
(§7) The sensitivity to the molecules was evaluated as growth inhibition of the fungus and measured in terms of absorbance immediately before and after the incubation period.
(§8) The absorbance was measured for each well using the Infinite® F50 Absorbance Reader (Tecan Group Ltd) spectrophotometer at 405 nm (for mycelial inoculums) and at 492 nm (for conidic inoculums).
(§9) For each strain, the percentage of growth inhibition (GIP) caused by each of the active-ingredient concentrations was calculated using the following formula: […]
(§10) wherein At72-120 and At0 are respectively the absorbances of the treated well and of the untreated control measured at the end and at the beginning of the incubation period. GIP data were used for calculating the potential synergistic effect of the compositions tested using the formula proposed by Colby (1967):
(§11) [formula] • wherein: • GIPt=GIP expected of the active molecule A and B tested at dose p for molecule • A and dose q for molecule B: • GIPa=GIP expected from the molecule A tested at dose p; • GIPb=GIP expected from the molecule B tested at dose q.
(§12) The synergistic effect of the two molecules is indicated when the effectiveness of the mixed combination of A+B […], is higher than the expected effectiveness calculated with the Colby equation (GIPa+b/GIPt>1), as described in literature in Colby, S. R. (1967): “Calculating synergistic and antagonistic responses of herbicide combinations”, Weeds, 15 (1), pages 20-22.

[2] = system: Sclerotinia minor; test: In vitro antifungal synergy assay, growth inhibition in 96-well plates (absorbance), Sclerotinia minor
Method: as §1, §2
(§13) For the strains not easily sporulating in vitro, i.e. Sclerotinia minor and Venturia inaequalis, six to eight pieces of mycelium, taken from actively growing cultures, are transferred into a grinding egg containing 6 ml of double-concentration potato dextrose broth (PDB). and some metal balls. The suspension is homogenized with a Pulverisette 23 mini-mill (Fritsch GmbH).
as §3, §4, §5, §6, §7, §8, §9, §10, §11, §12

[3] = system: Venturia inaequalis; test: In vitro antifungal synergy assay, growth inhibition in 96-well plates (absorbance), Venturia inaequalis
Method: as §1, §2, §13, §3, §4, §5, §6, §7, §8, §9, §10, §11, §12

SMILES | Effect A, Effect B (GIP) ([1]; dose 0.1 mg/l) [%] | Effect A, Effect B (GIP) ([1]; dose 1 mg/l) [%] | Effect A, Effect B (GIP) ([1]; dose 5 mg/l) [%] | Effect A, Effect B (GIP) ([1]; dose 50 mg/l) [%] | Effect A, Effect B (GIP) ([1]; dose 100 mg/l) [%] | Effect A, Effect B (GIP) ([2]; dose 0.1 mg/l) [%] | Effect A, Effect B (GIP) ([2]; dose 1 mg/l) [%] | Effect A, Effect B (GIP) ([2]; dose 5 mg/l) [%] | Effect A, Effect B (GIP) ([2]; dose 10 mg/l) [%] | Effect A, Effect B (GIP) ([3]; dose 0.1 mg/l) [%] | Effect A, Effect B (GIP) ([3]; dose 1 mg/l) [%] | Effect A, Effect B (GIP) ([3]; dose 5 mg/l) [%] | Effect A, Effect B (GIP) ([3]; dose 10 mg/l) [%] | Effect A, Effect B (GIP) ([3]; dose 50 mg/l) | Effect A, Effect B (GIP) ([3]; dose 100 mg/l) | Effect A, Effect B (GIP) ([1]; dose 10 mg/l) [%] | Effect A, Effect B (GIP) ([2]; dose 50 mg/l) [%] | Effect A, Effect B (GIP) ([2]; dose 100 mg/l) [%]
O=C(Cc1ccccc1)N/C(=N\OCC1CC1)c1c(C(F)(F)F)ccc(F)c1F [Cyflufenamid] | 1.7 | 4.3 | 10.6 | 49.4 | 60.2 | 3.7 | 10.2 | 17.8 | 23.4 | 1.2 | 5.5 | 10.3 | 12.7 | 15.2% and 12.7% | 18.3% and 18.0% | – | – | –
CCC(C)(NC(=O)c1cc(Cl)c(C)c(Cl)c1)C(=O)CCl (centres unmarked) [Zoxamide] | – | 5.6 | – | 47.3 | 56.9 | 2.5 | 29.1 | – | 37.6 | – | 78.0 | 78.8 | 80.0 | 80.1% | 84.5% and 84.0% | 31.2 | 58.2 | 70.3
